{
  "source": "patent US11723946B2",
  "about": "“Methods for regulating transcription of multiple genes and expression of multiple targets” (CHINA MEDICAL UNIVERSITY, priority 2014, dated 2023)",
  "key": {"[1]": {"test_system": "NF-κB", "test": "Ex vivo bioluminescent imaging of organs, LPS-induced NF-κB/luc transgenic mice", "format": "in vivo", "conditions": "group 2 (LPS IP) vs group 1 (PBS blank); up-regulation", "description": "The mice of the three groups manipulated in example 3 were abdominally injected with 150 mg/Kg luciferin. After luciferin injection for 5 minutes, the mice were sacrificed and the tissues including brain, heart, lung, liver, spleen, stomach, kidney, ovary and intestine were rapidly removed. The collected tissues were placed in the IVIS Imaging System-200 Series (Xenogen, Hopkinton, Mass.) and imaged with the same setting used for in vivo bioluminescent imaging.\nIn the table 2, the average of luciferin value in the mice of the group 2 was divided to average of luciferin value in the mice of the group 1 to obtain the fold change. In table 3, the average of luciferin value in the mice of the group 3 was divided to the average of luciferin value in the mice of the group 2 to obtain the fold change."}, "[2]": {"test_system": "NF-κB", "test": "Whole animal bioluminescent imaging, LPS-induced NF-κB/luc transgenic mice", "format": "in vivo", "from_the_text": "Mice: The NF-κB/luc transgenic mice bearing the luciferase transgene driven by two copies of the NF-kappaB regulatory elements were mated with wild-type FVB mice to generate the hybrid NF-κB/luc transgenic offspring for the experiments. Whole animal bioluminescent imaging: 15 mice with age of 6˜8 weeks were randomly divided into three groups. The group 1 was the blank group; the group 2 was control group; and the group 3 was experimental group. The mice of the group 2 and the group 3 were administration with 100 ul of […] lipopolysaccharide (LSP) solution to induce the inflammation in the mice by intraperitoneal injection (IP injection). As the blank control, the mice of group 1 were administered with 100 μl of PBS by IP injection. After the LPS-injection for 5 minutes, the mice of the group 3 were further injected with 20 μl solution that contains 0.5 mg/Kg of the present polypeptide by IP injection. In contrast, the mice of the group 2 and the […] were injected with 20 μul of water. […] For in vivo imaging mice were anesthetized with isoflurane and injected intraperitoneally with 150 mg/kg luciferin. After 10 minutes, the mice were placed face up and imaged for 1 min with the camera set at the highest sensitivity by IVIS Imaging System-200 (Series Xenogen Hopkinton, Mass.). The photons emitted from the tissues were quantified by Living Images software (Xenogen, Hopkinton, Mass.) and were shown in FIG. 4A. In the FIG. 4A, the Y-axis shown the signal strength (photons/sec) that stands for total photons diffused from the mice."}},
  "data": [
    {"substance": "lipopolysaccharide [LPS, reference compound]", "values": [
      {"measurement": "Fold change of the luciferin value, Brain", "setting": "[1]", "value": 18.87, "unit": "folds"},
      {"measurement": "Fold change of the luciferin value, Heart", "setting": "[1]", "value": 6.03, "unit": "folds"},
      {"measurement": "Fold change of the luciferin value, Intestine", "setting": "[1]", "value": 55.63, "unit": "folds"},
      {"measurement": "Fold change of the luciferin value, Kidney", "setting": "[1]", "value": 93.78, "unit": "folds"},
      {"measurement": "Fold change of the luciferin value, Liver", "setting": "[1]", "value": 4.06, "unit": "folds"},
      {"measurement": "Fold change of the luciferin value, Lung", "setting": "[1]", "value": 11.90, "unit": "folds"},
      {"measurement": "Fold change of the luciferin value, Ovary", "setting": "[1]", "value": 5.35, "unit": "folds"},
      {"measurement": "Fold change of the luciferin value, Spleen", "setting": "[1]", "value": 5.57, "unit": "folds"},
      {"measurement": "Fold change of the luciferin value, Stomach", "setting": "[1]", "value": 4.95, "unit": "folds"},
      {"measurement": "increase of NF-κB-driven luminescent intensity", "setting": "[2]; LPS group vs blank group", "value": "approximately 10.95 fold"},
      {"measurement": "average of luciferin value", "setting": "[2]; group 2: LPS IP + water, 4 hours, blank group 1 2.92×10^7", "value": "31.97×10^7 photons/sec"}
    ]}
  ]
}
